# Data from publication PMC9569971, “New Oxazolo[5,4-d]pyrimidines as Potential Anticancer Agents: Their Design, Synthesis, and In Vitro Biological Activity Research” (International Journal of Molecular Sciences, 2022).
# How the values were obtained:
# BCL-2 = BCL-2 Human ELISA Kit, HT29 lysate; type: cell-based; conditions: lysate of HT29 cells treated with 3g; SD ±0.11
# Description: The assay was performed on a lysate of the HT29 colon adenocarcinoma cell line treated with compound 3g. The wells of the assay microplate were coated with a BCL-2-specific antibody, and the BCL-2 present in the test and standards was bound to the antibodies adsorbed in the microwells, which were washed twice with 400 µL of washing buffer per well with careful aspiration. The washing buffer was left in the wells for 15 s before aspiration. Care was taken not to scratch the surface of the microwells. Following the final washing step, the wells were emptied and excess washing buffer was discarded. Two rows of the human standard BCL-2 were prepared at dilutions ranging from 32.0 to 0.5 ng/mL. Biotin conjugate was prepared, and 50 µL of biotin conjugate was added to all wells, covered with adhesive foil, and incubated at room temperature (18 to 25 °C) for 2 h on a microplate shaker. The adhesive film was removed and washed 3 times. […] The color change of the mixture was monitored with an ELISA reader at 620 nm. […] The results were read immediately after the stop solution was added. The reading was taken at the original wavelength of 450 nm. […]
# Biological assays were performed in three independent replicates, and each replicate used four samples. […] For the assessment of cytotoxicity, mathematical models were developed using the GraphPad PRISM software, based on which CC50 was determined. […]
# [1] = system: HT29 primary colon adenocarcinoma cells; experiment: Detection of apoptosis (Annexin V FITC / propidium iodide); type: cell-based, human; parameters: unit not given here; conditions: 24 h
# How it was run: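 After 24 h growth at 30,000 cells/well, HT29 cells were treated with compound at 1, 2, 5 and 10 µM for 24 h. They were then stained with Annexin V-FITC/propidium iodide in PBS with Mg²⁺/Ca²⁺ for 20 min at 37 °C.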
# HT29 cells = experiment: Migration (scratch) assay; type: cell-based, human; conditions: control T 155558.2, control T0 544366.45
# Description: The scratch test was performed to verify that the tested compound 3g could inhibit the formation of metastases by the HT29 cell line. The seeded HT29 cells were incubated until they formed a monolayer over the entire surface of the well. Then, a scratch test was performed by making a scratch in the monolayer and measuring its width—that is, To, amounting to 544,366.45 μm^2. Freshly prepared compounds were added to the HT29 cells at concentrations of 10, 25, 50, and 100 μM. Breeding plates were incubated for 24 h. The next day, scratch width was measured again using the ImageJ open-source platform. […] The lowest cellular overgrowth of HT29 culture occurred at the concentration of 100 μM for the compound. Compound 3g inhibited the migration of HT29 cells more strongly than the reference drugs, showing that it has the potential to inhibit metastasis. The width of the scratch after 24 h when no compound was applied to the cells was used as a control (T = 155,558.2 μm^2).
# All cell lines were grown in 5% CO2 at 95% humidity and 37 °C, with both morphology and confluence assessed twice per week. When the confluence was greater than 70%, adherent cell lines were detached from the bottle surface with a TrypLE solution and then used in assays or reduced. The cells were collected into centrifuge tubes and centrifuged at 1000× g for 5 min at room temperature. The supernatant was removed to dry. The cell pellets were then resuspended in an appropriate medium. The cells were counted using a Bürker chamber and resuspended in 96-well plates to a cell density of 10,000 cells per well for MTT assay. For the rhodamine accumulation test and the detection of apoptosis assay, cells were seeded at a density of 30,000 per well. In the migration assay, cells were seeded at a density of 20,000 per well, and monolayer formation was awaited.
# After seeding, HT29 cells were incubated until they formed a monolayer over the entire surface of the well. A scratch was made on the surface overgrown with cells, and then photomicrographs of the scratch were taken using the EVOS FL microscope. The freshly prepared compound 3g and the reference drugs were added at concentrations of 10, 25, 50, and 100 µM. Then, they were incubated for 24 h, and micrographs were performed at that time using the EVOS FL microscope. The scratch width was measured using the ImageJ open-source platform. The measurement of scratch width was also performed after 24 h without adding compounds.
compound,measurement,setting,value
"Cc1noc(N)c1-c1nc2c(NCCCN(C)C)ncnc2o1 [Compound 3g, 2-(5-Amino-3-methylisoxazol-4-yl)-7-N-[3-(N,N-dimethylamino)propyl]aminooxazolo[5,4-d]pyrimidine]",BCL-2 concentration,BCL-2,0.41 ng/mL
same,apoptosis mean,[1]; 1 μM,3.74
same,late apoptosis mean,[1]; 1 μM,8.08
same,necrosis mean,[1]; 1 μM,11.28
same,percent live (viable) cells,[1]; 1 μM,76.90
same,apoptosis mean,[1]; 2 μM,9.72
same,late apoptosis mean,[1]; 2 μM,9.30
same,necrosis mean,[1]; 2 μM,6.34
same,percent live (viable) cells,[1]; 2 μM,74.65
same,apoptosis mean,[1]; 5 μM,51.54
same,late apoptosis mean,[1]; 5 μM,23.48
same,necrosis mean,[1]; 5 μM,1.18
same,percent live (viable) cells,[1]; 5 μM,23.81
same,apoptosis mean,[1]; 10 μM,45.24
same,late apoptosis mean,[1]; 10 μM,29.23
same,necrosis mean,[1]; 10 μM,0.90
same,percent live (viable) cells,[1]; 10 μM,24.62
same,"scratch width after 24 h, mean",HT29 cells; 10 μM,180844 μm^2
same,"scratch width after 24 h, mean",HT29 cells; 25 μM,218581.6 μm^2
same,"scratch width after 24 h, mean",HT29 cells; 50 μM,245687.8 μm^2
same,"scratch width after 24 h, mean",HT29 cells; 100 μM,314566.8 μm^2
